How the values were obtained:
Experiment in all cases: relative viability (nuclei count vs DMSO), 5 days (fraction); higher = more cells survive
[1] = compound: Cc1ccc(NC(=O)c2ccc(CN3CCN(C)CC3)cc2)cc1Nc1nccc(-c2cccnc2)n1 [Imatinib] + CC1(C)CCC(c2ccc(Cl)cc2)=C(CN2CCN(c3ccc(C(=O)NS(=O)(=O)c4ccc(N[C@H](CCN5CCOCC5)CSc5ccccc5)c(S(=O)(=O)C(F)(F)F)c4)cc3)CC2)C1 [Navitoclax] (partner 0.5 µM)
In short: (§1)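 A single step with final 0.05% Triton X-100, 1% formaldehyde and 1 ug/ml Hoechst fixed the cells and stained nuclei 5 days after treatment. Lung cancer cell lines in 1536-well plates had been treated by pin tool the day after seeding with one drug alone or a fixed anchor-drug dose plus five library-drug doses (not always all listed) in √10 steps, and nuclei were counted on 4× images. Relative viability is the ratio of nuclei in treated wells to nuclei in vehicle wells, taken as the median of duplicate plates.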

[2] = compound: Cc1ccc(NC(=O)c2ccc(CN3CCN(C)CC3)cc2)cc1Nc1nccc(-c2cccnc2)n1 [Imatinib] + CS(=O)(=O)CCNCc1ccc(-c2ccc3ncnc(Nc4ccc(OCc5cccc(F)c5)c(Cl)c4)c3c2)o1 [Lapatinib] (partner 2 µM)
In short: as §1

[3] = compound: Cc1ccc(NC(=O)c2ccc(CN3CCN(C)CC3)cc2)cc1Nc1nccc(-c2cccnc2)n1 [Imatinib] + CS(=O)(=O)N1CCN(Cc2cc3nc(-c4cccc5[nH]ncc45)nc(N4CCOCC4)c3s2)CC1 [Pictilisib] (partner 1 µM)
In short: as §1

[4] = compound: Cc1ccc(NC(=O)c2ccc(CN3CCN(C)CC3)cc2)cc1Nc1nccc(-c2cccnc2)n1 [Imatinib] + O=C(CCCCCCC(=O)Nc1ccccc1)NO [Vorinostat] (partner 1 µM)
In short: as §1

Cell Line	relative viability ([1]; first compound 0.02 µM)	relative viability ([1]; first compound 0.06325 µM)	relative viability ([1]; first compound 0.2 µM)	relative viability ([1]; first compound 0.6325 µM)	relative viability ([1]; first compound 2 µM)	relative viability ([2]; first compound 0.02 µM)	relative viability ([2]; first compound 0.06325 µM)	relative viability ([2]; first compound 0.2 µM)	relative viability ([2]; first compound 0.6325 µM)	relative viability ([2]; first compound 2 µM)	relative viability ([3]; first compound 0.02 µM)	relative viability ([3]; first compound 0.06325 µM)	relative viability ([3]; first compound 0.2 µM)	relative viability ([3]; first compound 0.6325 µM)	relative viability ([3]; first compound 2 µM)	relative viability ([4]; first compound 0.02 µM)	relative viability ([4]; first compound 0.06325 µM)	relative viability ([4]; first compound 0.2 µM)	relative viability ([4]; first compound 0.6325 µM)	relative viability ([4]; first compound 2 µM)
SW 1573	1.12	0.955	1.21	1.06	1.1	1.33	0.676	1.28	0.983	1.17	0.623	0.501	0.528	0.561	0.483	0.802	0.392	0.973	0.9	0.709
NCI-H1355	1.06		0.99	0.922	0.947	1.04		1.1	1.02	0.99	0.432		0.434	0.468	0.536	0.733		0.688	0.579	0.609
COR-L 105	1.01	0.879	0.756	0.743	0.605	0.398	0.361	0.351	0.368	0.385	0.37	0.372	0.508	0.406	0.385	1.12	0.858	0.825	0.701	0.841
NCI-H1666		1.16	1.06	1.1	1.06	0.679	0.811	0.565	0.748	0.844	0.327	0.406	0.381	0.48	0.393	1.04	0.986	1.06	1.27	0.946
NCI-H1993		1	0.953	0.851	0.776		0.872	0.774	0.809	0.698		0.861	0.805	0.997	0.924	0.608	0.581	0.737	0.688	0.743
H3255	0.512	0.441	0.44	0.497	0.548	0.234		0.268	0.266	0.23	0.493	0.488	0.507	0.447	0.426	0.873		0.765		0.588
HARA	1.19	1.18	1.15	1.17	1.16	0.629	0.996	0.83	0.748	0.781	0.42	0.406	0.389	0.363	0.339	0.615		0.595	0.546	0.653
NCI-H2347	0.792	0.675	0.688	0.823	0.859	0.995	0.913	1.05	1.04	0.91	0.414	0.508	0.64	0.453	0.738	0.568		0.585	0.552	0.569
LU99A	0.905	0.788	0.807	1.08	0.855	1.14	1.08	0.986	0.99	1.18	0.353	0.333	0.3	0.354	0.335	0.564	0.455	0.471	0.559	0.564
NCI-H727	0.324	0.398	0.4	0.412	0.417	0.626	0.637	0.84	0.769	0.801	0.356	0.442	0.355	0.524	0.383	1.28			1.14	1.34
LK-2	0.975	0.685	0.848		0.84	1.02	0.625	1.11	0.486	0.967	0.639		0.581	0.488	0.572	0.323	0.246	0.286		0.159
BEN	0.0684	0.0589	0.0665	0.0553	0.0529		0.465	0.725	0.697	0.54	0.609	0.383	0.619	0.491	0.673	0.526	0.654	0.634	0.547	0.556
NCI-H2228	0.982	0.891	1.11	0.922	0.955	1.31	1.02	1.03	1.01	0.843	0.525	0.178	0.427	0.534	0.52	0.677	0.692	0.724	0.602	1
PC-14	1.14	0.988	1.12	1.06	0.96	0.388	0.24	0.301	0.321	0.317	0.69		0.874	0.688	0.859	0.902	0.472	0.8	0.56	0.791
LOU-NH91	0.76		0.654	0.569	0.613	0.793	0.775	0.792	0.765	0.766	0.51	0.546	0.49	0.537	0.498	0.948	1.08	0.938	0.885	0.895
RERF-LC-KJ	1.09	0.999	1	0.83	0.954		0.853	0.498	0.819	0.763	0.636	0.422	0.541	0.487	0.498	0.698	0.535		0.662	0.683
NCI-H647	1.42	1.36	1.14	1.12	1.17		1.11	1.2	1.17	1.02	0.462	0.447	0.433	0.38	0.385	0.459	0.888	0.593	0.549	0.619
NCI-H1975	1.11	1.27	1.22	1.03	1.13	1.01	1.04	1.03	1.03		0.332	0.311	0.294	0.28	0.324	0.698	0.741	0.73	0.686	0.686
EPLC-272H	1.22		1.12	1.11	1.06	0.779		0.97	1.17	0.835	0.301		0.402	0.344	0.286	0.351			0.309	0.422
NCI-H520	1.24	1.14	1.18	1.04	1.12	1.06		1.01	0.82	0.86	0.348	0.362	0.305	0.289	0.306	0.7		0.662	0.922	0.729
NCI-H1734	0.938		1.11	0.758		1.26		1.3	1.1		0.515		0.559	0.428		0.92		0.832	0.856	0.717
NCI-H1755	1.02	1.06	1.12	0.988	1.04	1.14	0.994	1.06	0.997	1.02	0.457	0.348	0.531	0.495	0.473	0.875	0.835	0.649	0.742	0.653
NCI-H2087	1.07	1.03	1.21	1.11	0.956	1.06	0.654	1.21	1.05		1.13	0.44	0.796		0.858	0.806		0.787	0.716	
EMC-BAC-2	1.18	1.49	1.31	1.24	1.22	0.937	0.702	0.833	0.972	0.873	0.513	0.505	0.614	0.536	0.582	0.514	0.497	0.492	0.522	0.514
NCI-H2170	0.722	0.655	0.672	0.643	0.633	0.266	0.28	0.282	0.263	0.245	0.292	0.334	0.283	0.254	0.26	0.972	0.845	0.834	0.775	0.792
NCI-H23	1.04	0.916	1.1	0.738	0.87	1.2	0.959	1.11		1.13	0.582	0.547	0.541	0.446	0.494	0.686	0.669	0.578	0.453	0.488
HCC-44	1.11	1.05	1.03	0.858	0.866	1.13	1.15		0.991	0.934	0.604	0.653	0.974	0.548	0.529	1.12		1.14	1.14	1.04
HCC-366	1.02		1.13	1.09	1.07	1.3		1.33	1.03	1.04	0.131	0.119	0.19	0.144	0.223	0.421	0.307	0.467	0.369	0.368
HCC-827	1.05	0.947	1.08	1.05	0.973	0.206	0.162	0.211	0.179	0.191	0.817	0.942	1.1	0.926	0.952	0.797	0.906	0.858	0.788	0.684

From the supplement of paper PMC10307832
